Laboratory results reported in patent US20160304461A1, “QUINOLONE COMPOUND AND PHARMACEUTICAL COMPOSITION” (OTSUKA PHARMACEUTICAL CO., LTD., priority 2007, published 2016).

Columns and labels:
[1] = tested on: human neuroblastoma cell lines SH-SY5Y; assay: Improvement of mitochondrial dysfunction in MPP+-treated SH-SY5Y cells (Alamar Blue mitochondrial oxidation reduction activity); assay type: cell-based; conditions: SH-SY5Y cells in 1.5 mM MPP+ medium, relative to cells in DMSO alone = 100%, read-out: Fluorescence Intensity (%); for activity at 0.01 µg/mL: test compound 0.01 μg/ml; for activity at 0.03 µg/mL: test compound 0.03 μg/ml; for activity at 0.1 µg/mL: test compound 0.1 μg/ml; for activity at 0.3 µg/mL: test compound 0.3 μg/ml; for activity at 1 µg/mL: test compound 1 μg/ml
Method: Evaluation of Improvement of Mitochondrial Dysfunction using Human Neuroblastoma Cell Lines SH-SY5Y Treated with 1-methyl-4-phenylpyridinium (MPP^+)
In human neuroblastoma cell lines SH-SY5Y in which mitochondrial activity was injured by MPP^+ treatment (Bollimuntha S. et al., J Biol Chem, 280, 2132-2140 (2005) and Shang T. et al., J Biol Chem, 280, 34644-34653 (2005)), improvement of the mitochondrial dysfunction was evaluated on the basis of the measurement value of the mitochondrial oxidation reduction activity using Alamar Blue fluorescent dye after the compound addition (Nakai M. et. al, Exp Neurol, 179, 103-110 (2003)).
The human neuroblastoma cell lines SH-SY5Y were cultured in Dulbecco's Modified Eagle's Medium containing 10% fetal bovine serum (DMEM containing 50 units/ml penicillin and 50 μg/ml streptomycin as antibiotics) at 37° C. in the presence of 5% carbon dioxide. Cells were scattered on a poly-D-lysine-coated 96-well black plate at a concentration of 3-6×10^4 cells/cm^2 (medium amount: 100 μl/well), and cultured in the above medium for two days. Further, the medium was changed to a DMEM containing a 1% N2 supplement (N2-DMEM) or to a medium (100 μl/well) in which 1.5 mM MPP^+ was dissolved. The cells were cultured therein for 39 to 48 hours, and then subjected to a mitochondrial oxidation reduction activity measurement system. A sample compound that had been previously dissolved in dimethyl sulfoxide (DMSO) was diluted with N2-DMEM, and added in a volume of 10 μl/well 24 hours before the activity measurement (final compound concentration: 0.01 to 1 μg/ml).
After removal of the medium by suction, a balanced salt solution containing 10% Alamar Blue (154 mM sodium chloride, 5.6 mM potassium chloride, 2.3 mM calcium chloride, 1.0 mM magnesium chloride, 3.6 mM sodium bicarbonate, 5 mM glucose, 5 mM HEPES, pH 7.2) was added in a volume of 100 μl/well, and reacted in an incubator at 37° C. for 1 hour. The fluorescent intensity was detected using a fluorescence detector (a product of Hamamatsu Photonics K.K., excitation wavelength 530 nm, measurement wavelength 580 nm) to thereby measure the mitochondrial oxidation reduction activity.
The fluorescent intensity of the well of the cells cultured in a medium containing MPP^+ and in each of the sample compounds was relatively evaluated based on a 100% fluorescent intensity of the well of the cells cultured in a medium containing DMSO alone (final concentration: 0.1%).

| Structure (SMILES) | melting point | activity at 0.01 µg/mL [1] [%] | activity at 0.03 µg/mL [1] [%] | activity at 0.1 µg/mL [1] [%] | activity at 0.3 µg/mL [1] [%] | activity at 1 µg/mL [1] [%] |
| --- | --- | --- | --- | --- | --- | --- |
| CCCOc1ccc(F)c2c(=O)c(-c3ccoc3)c[nH]c12 [Example 1, 5-Fluoro-3-furan-3-yl-8-propoxy-1H-quinolin-4-one] | 214 to 215 °C | 51 | 62 | 70 | 66 | 64 |
| COc1ccc(-c2c[nH]c3c(OCC4CC4)ccc(F)c3c2=O)cc1 [Example 24, 8-Cyclopropylmethoxy-5-fluoro-3-(4-methoxyphenyl)-1H-quinolin-4-one] | 190 to 191 °C | 60 | 70 | 82 | 78 | 84 |
| CCCOc1ccc(F)c2c(=O)c(-c3ccco3)c(C)[nH]c12 [Example 76, 5-Fluoro-3-furan-2-yl-2-methyl-8-propoxy-1H-quinolin-4-one] | 203 to 204 °C |  |  |  |  |  |
| CCCOc1ccc(F)c2c(=O)c(-c3ccc(OC)cc3)c(C(F)(F)F)[nH]c12 [Example 77, 5-Fluoro-3-(4-methoxyphenyl)-8-propoxy-2-trifluoromethyl-1H-quinolin-4-one] | 170 to 171 °C |  |  |  |  |  |
| CCCOc1ccc(F)c2c(=O)c(-c3ccco3)c(C(F)(F)F)[nH]c12 [Example 78, 5-Fluoro-3-furan-2-yl-8-propoxy-2-trifluoromethyl-1H-quinolin-4-one] | 134 to 136 °C |  |  |  |  |  |
| CCCOc1ccc(F)c2c(=O)c(-c3ccc(N(C)C)cc3)c(C(F)(F)F)[nH]c12 [Example 79, 3-(4-Dimethylaminophenyl)-5-fluoro-8-propoxy-2-trifluoromethyl-1H-quinolin-4-one] | 176 to 177 °C |  |  |  |  |  |
| CCCOc1ccc(F)c2c(=O)c(-c3ccc(CC)cc3)c(C(F)(F)F)[nH]c12 [Example 80, 3-(4-Ethylphenyl)-5-fluoro-8-propoxy-2-trifluoromethyl-1H-quinolin-4-one] | 187 to 188 °C |  |  |  |  |  |
| CCCOc1ccc(F)c2c(=O)c(-c3ccc(F)cc3)c(C(F)(F)F)[nH]c12 [Example 81, 5-Fluoro-3-(4-fluorophenyl)-8-propoxy-2-trifluoromethyl-1H-quinolin-4-one] | 154 to 155 °C |  |  |  |  |  |
| CCCOc1ccc(F)c2c(=O)c(-c3ccco3)c(C(C)C)[nH]c12 [Example 84, 5-Fluoro-3-furan-2-yl-2-isopropyl-8-propoxy-1H-quinolin-4-one] | 113 to 114 °C |  |  |  |  |  |
| COc1ccc(-c2c[nH]c3c(-c4cc5ccccc5s4)ccc(F)c3c2=O)cc1 [Example 88, 8-Benzo[b]thiophen-2-yl-5-fluoro-3-(4-methoxyphenyl)-1H-quinolin-4-one] | 276 to 277 °C |  |  |  |  |  |
| CCCOc1ccc(F)c2c(=O)c(-c3ccc(C(=O)N4CCOCC4)cc3)c[nH]c12 [Example 90, 5-Fluoro-3-[4-(morpholine-4-carbonyl)phenyl]-8-propoxy-1H-quinolin-4-one] | 234 to 236 °C |  |  |  |  |  |
| CCCOc1ccc(F)c2c(=O)c(-c3ccc(O)cc3)c[nH]c12 [Example 95, 5-Fluoro-3-(4-hydroxyphenyl)-8-propoxy-1H-quinolin-4-one] | 271 to 272 °C |  |  |  |  |  |
| O=c1c(-c2ccc(O)cc2)c[nH]c2c(O)ccc(F)c12 [Example 96, 5-Fluoro-8-hydroxy-3-(4-hydroxyphenyl)-1H-quinolin-4-one] | 303 to 305 °C (dec.) |  |  |  |  |  |
| CCCOc1ccc(F)c2c(=O)c(-c3ccc(O)cc3OC)c[nH]c12 [Example 97, 5-Fluoro-3-(4-hydroxy-2-methoxyphenyl)-8-propoxy-1H-quinolin-4-one] | 251 to 253 °C |  |  |  |  |  |
| CCCOc1ccc(F)c2c(=O)c(-c3ccc(OC)cc3O)c[nH]c12 [Example 98, 5-Fluoro-3-(2-hydroxy-4-methoxyphenyl)-8-propoxy-1H-quinolin-4-one] | 208 to 209 °C |  |  |  |  |  |
| COc1ccc(-c2c[nH]c3c(OCC(C)O)ccc(F)c3c2=O)cc1 (stereo not shown) [Example 102, 5-Fluoro-8-(2-hydroxypropoxy)-3-(4-methoxyphenyl)-1H-quinolin-4-one] | 216 to 218 °C |  |  |  |  |  |
| CCCOc1ccc(Cl)c2c(=O)c(-c3ccc(OC)cc3)c[nH]c12 [Example 103, 5-Chloro-3-(4-methoxyphenyl)-8-propoxy-1H-quinolin-4-one] | 194 to 196 °C |  |  |  |  |  |

Second part, led by results:

| melting point | Structure (SMILES) | activity at 0.01 µg/mL [1] [%] | activity at 0.03 µg/mL [1] [%] | activity at 0.1 µg/mL [1] [%] | activity at 0.3 µg/mL [1] [%] | activity at 1 µg/mL [1] [%] |
| --- | --- | --- | --- | --- | --- | --- |
| 208 to 210 °C | CCCOc1ccc(F)c2c(=O)c(-c3ccsc3)c[nH]c12 [Example 3, 5-Fluoro-8-propoxy-3-thiophen-3-yl-1H-quinolin-4-one] | 54 | 63 | 70 | 78 | 74 |
| 217 to 218 °C | CCCOc1ccc(F)c2c(=O)c(-c3ccc(OC)c(Cl)c3)c[nH]c12 [Example 4, 3-(3-Chloro-4-methoxyphenyl)-5-fluoro-8-propoxy-1H-quinolin-4-one] | 56 | 61 | 70 | 72 | 59 |
| 196 to 197 °C | CCCOc1ccc(F)c2c(=O)c(-c3ccc(OC)cc3)c[nH]c12 [Example 6, 5-Fluoro-3-(4-methoxyphenyl)-8-propoxy-1H-quinolin-4-one] | 59 | 71 | 85 | 88 | 83 |
| 198 to 200 °C | CCCOc1cc(F)c(F)c2c(=O)c(-c3ccc(OC)cc3)c[nH]c12 [Example 21, 5,6-Difluoro-3-(4-methoxyphenyl)-8-propoxy-1H-quinolin-4-one] | 52 | 59 | 63 | 74 | 57 |
| 224 to 225 °C | COc1ccc(-c2c[nH]c3c(N(C)C4CCCCC4)ccc(F)c3c2=O)cc1 [Example 25, 8-(N-Cyclohexyl-N-methylamino)-5-fluoro-3-(4-methoxyphenyl)-1H-quinolin-4-one] | 46 | 56 | 66 | 50 | 24 |
| 143 to 144 °C | CCCOc1ccc(F)c2c(=O)c(-c3ccc(OC(F)(F)F)cc3)c(C(F)(F)F)[nH]c12 [Example 82, 5-Fluoro-8-propoxy-3-(4-trifluoromethoxyphenyl)-2-trifluoromethyl-1H-quinolin-4-one] |  |  |  |  |  |
| 195 to 197 °C | CCCOc1ccc(F)c2c(=O)c(-c3ccc(OC)cc3)c(C(C)C)[nH]c12 [Example 83, 5-Fluoro-2-isopropyl-3-(4-methoxyphenyl)-8-propoxy-1H-quinolin-4-one] |  |  |  |  |  |
| 149 to 150 °C | CCCOc1ccc(F)c2c(=O)c(-c3cccs3)c(C(F)(F)F)[nH]c12 [Example 85, 5-Fluoro-8-propoxy-3-thiophen-2-yl-2-trifluoromethyl-1H-quinolin-4-one] |  |  |  |  |  |
| 213 to 215 °C | COc1ccc(-c2c[nH]c3c(OC4CCCC4)ccc(Br)c3c2=O)cc1 [Example 104, 5-Bromo-8-cyclopentyloxy-3-(4-methoxyphenyl)-1H-quinolin-4-one] |  |  |  |  |  |
